Literature values as cited in patent US20100297262A1, “[…] ACTIVE COMPOSITIONS COMPRISING OXIDATIVE STRESS MODULATORS (OSM), NEW CHEMICAL […], COMPOSITIONS AND USES” (COLBY PHARMACEUTICAL COMPANY, priority 2009, published 2010).

Legend:
[1] = system: Bovine aortic endothelial cells; conditions: Treatment: H2O2 or hydroperoxyoctadecadienoic acid; cited from earlier work
Jurkat cells = conditions: Treatment: H2O2; cited from earlier work
[2] = system: Friedreich's ataxia patient primary skin fibroblasts; conditions: Treatment: Glutathione depletion; cited from earlier work
[3] = system: Human colon cancer cell lines (HCT116 and RKO); conditions: Treatment: 5-Fluorouracil; cited from earlier work
[4] = system: Isolated kidney mitochondria; conditions: Treatment: Superoxide; cited from earlier work
[5] = system: Isolated liver mitochondria; conditions: Treatment: Ferrous iron/ascorbate; cited from earlier work
COS-7 cells = conditions: Treatment: H2O2; cited from earlier work
[6] = system: Rat primary cerebellar granule cells; conditions: Treatment: Ethanol; cited from earlier work

## Cc1c(C)c2c(c(C)c1O)CCC(C)(CC[P+](c1ccccc1)(c1ccccc1)c1ccccc1)O2 (centres unmarked) [MitoVE-C2]
[1]
  Outcome: transferrin receptor expression and iron uptake: fluorescence. Decreases
Jurkat cells
  Outcome: apoptosis: Decreases apoptosis
[2]
  Outcome: cell death: Decreases cell death
[3]
  Outcome: apoptosis from 5-FU chemotherapy: Decreases apoptosis from 5-
[4]
  Outcome: activation of uncoupling proteins: Blocks activation of
[5]
  Outcome: lipid peroxidation, protein carbonyl formation and loss of membrane potential: Decreases lipid peroxidation,
COS-7 cells
  Outcome: growth factor receptor and kinase phosphorylation: Decreases growth factor
[6]
  Outcome: dichlorofluorescein fluorescence and cell death: Decreases
